# Measurements taken from patent US20230024438A1, “INHIBITORS OF HIF-2ALPHA” (ARCUS BIOSCIENCES, INC., priority 2019, published 2023).
# What was measured:
# [1] = biological target: T1, HIF-2α (Homo sapiens, UniProt Q99814); assay: HIF-2α Luciferase Reporter Assay; type: cell-based; conditions: HIF-Luc-786-0 cells, 20 hours incubation, luciferase activity; read-out: HIF-2α Luciferase Assay
# T1 construct: endogenous in cells; host or cells: 786-O cells (ATCC CRL-1932) stably carrying the Cignal Lenti HIF Luc Reporter
# [2] = biological target: T2, Histidine tagged HIF-2α protein containing PAS-B domain (240-350) (Homo sapiens, UniProt Q99814); assay: HIF-2α Scintillation Proximity Assay (SPA); type: binding; conditions: 50 nM HIF-2α protein, 25 nM radiolabeled tracer; read-out: HIF-2α Scintillation Proximity Assay
# T2 construct: Histidine tagged HIF-2α protein containing PAS-B domain (240-350) was prepared and purified in house; made in house
# T2 sequence (Q99814 240-350): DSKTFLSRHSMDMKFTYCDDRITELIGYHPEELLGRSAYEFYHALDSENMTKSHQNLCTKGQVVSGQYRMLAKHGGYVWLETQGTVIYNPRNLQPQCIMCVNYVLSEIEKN
# T1 sequence (Q99814 whole entry): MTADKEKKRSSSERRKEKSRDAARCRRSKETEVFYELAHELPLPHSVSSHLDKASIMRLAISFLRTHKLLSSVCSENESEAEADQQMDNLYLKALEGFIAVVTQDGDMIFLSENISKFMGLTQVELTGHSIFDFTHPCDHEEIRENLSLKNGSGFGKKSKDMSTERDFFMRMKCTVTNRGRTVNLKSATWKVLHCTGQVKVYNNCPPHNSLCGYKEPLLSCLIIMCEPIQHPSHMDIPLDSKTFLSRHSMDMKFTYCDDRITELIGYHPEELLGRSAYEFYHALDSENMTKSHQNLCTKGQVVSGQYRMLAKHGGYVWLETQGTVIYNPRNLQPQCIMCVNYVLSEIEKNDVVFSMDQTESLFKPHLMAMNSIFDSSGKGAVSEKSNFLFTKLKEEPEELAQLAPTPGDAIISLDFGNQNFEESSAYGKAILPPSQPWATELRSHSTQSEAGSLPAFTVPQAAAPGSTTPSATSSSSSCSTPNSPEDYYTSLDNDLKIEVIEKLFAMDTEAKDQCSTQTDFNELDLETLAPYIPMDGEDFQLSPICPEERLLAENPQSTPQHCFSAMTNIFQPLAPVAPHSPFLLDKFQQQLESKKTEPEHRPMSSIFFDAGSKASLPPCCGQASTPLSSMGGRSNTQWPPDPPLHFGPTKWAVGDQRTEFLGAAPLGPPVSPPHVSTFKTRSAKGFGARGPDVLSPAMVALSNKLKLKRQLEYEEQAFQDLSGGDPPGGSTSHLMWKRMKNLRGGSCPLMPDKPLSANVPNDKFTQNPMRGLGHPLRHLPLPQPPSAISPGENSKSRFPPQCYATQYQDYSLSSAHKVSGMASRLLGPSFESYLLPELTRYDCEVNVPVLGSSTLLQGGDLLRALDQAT
Compound,IC50 [1] [µM],IC50 [2] [µM]
"N#Cc1cccc(Oc2ccc(S(=O)(=O)C(F)(F)F)c3[nH]nc(Cl)c23)c1 [Example 62, m-[3-Chloro-7-(trifluoromethylsulfonyl)-1H-indazol-4-yloxy]benzonitrile]",> 10,< 1
"O=S(=O)(c1ccc(Oc2cccc(Cl)c2)c2c(Cl)n[nH]c12)C(F)(F)F [Example 63, 3-Chloro-4-(m-chlorophenoxy)-7-(trifluoromethylsulfonyl)-1H-indazole]",> 10,1 to 10
"N#Cc1cc(F)cc(Oc2c(F)cc(S(=O)(=O)C(F)(F)F)c3[nH]ncc23)c1 [Example 64, 3-Fluoro-5-[(5-fluoro-7-trifluoromethanesulfonyl-1H-indazol-4-yl)oxy]benzonitrile]",> 10,1 to 10
"N#Cc1cc(F)cc(Oc2ccc(S(=O)(=O)C(F)(F)F)c3cn[nH]c23)c1 [Example 70, 3-Fluoro-5-[4-(trifluoromethylsulfonyl)-1H-indazol-7-yloxy]benzonitrile]",1 to 10,1 to 10

# Next, values leading:
IC50 [1] [µM],IC50 [2] [µM],Compound
1 to 10,1 to 10,"N#Cc1cc(F)cc(Oc2cnc(C(F)(F)F)c3[nH]ncc23)c1 [Example 68, 3-Fluoro-5-{[7-(trifluoromethyl)-1H-pyrazolo[3,4-c]pyridin-4-yl]oxy}benzonitrile]"
1 to 10,1 to 10,"Fc1cc(Cl)cc(Oc2cnc(C(F)(F)F)c3[nH]ncc23)c1 [Example 69, 4-(3-Chloro-5-fluorophenoxy)-7-(trifluoromethyl)-1H-pyrazolo[3,4-c]pyridine]"
